Data: ChEMBL document CHEMBL3045335, “Synthesis, antimicrobial, and antioxidant activities of some new indole analogues containing pyrimidine and fused pyrimidine systems” (Med Chem Res, 2012)
In brackets after ≈: the same amount, converted by molar mass.

Legend:
Format in all cases: functional
[1] = tested on: Klebsiella pneumoniae; assay: Antibacterial activity against Klebsiella pneumoniae at 1 mg/ml after 24 hr by agar well diffusion method; conditions: for zone of inhibition at 1000 µg/mL: read-out: IZ
[2] = tested on: Pseudomonas aeruginosa; assay: Antibacterial activity against Pseudomonas aeruginosa at 1 mg/ml after 24 hr by agar well diffusion method; conditions: for zone of inhibition at 1000 µg/mL: read-out: IZ
[3] = tested on: Staphylococcus aureus; assay: Antibacterial activity against Staphylococcus aureus at 1 mg/ml after 24 hr by agar well diffusion method; conditions: for zone of inhibition at 1000 µg/mL: read-out: IZ
[4] = tested on: Aspergillus oryzae; assay: Antifungal activity against Aspergillus oryzae at 1 mg/ml after 72 hr by agar well diffusion method; conditions: read-out: IZ
[5] = tested on: Aspergillus terreus; assay: Antifungal activity against Aspergillus terreus at 1 mg/ml after 72 hr by agar well diffusion method; conditions: read-out: IZ
[6] = tested on: Aspergillus niger; assay: Antifungal activity against Aspergillus niger at 1 mg/ml after 72 hr by agar well diffusion method; conditions: read-out: IZ
[7] = tested on: Radical scavenging activity; assay: Antioxidant activity assessed as DPPH radical scavenging activity at 100 ug/ml by spectrophotometric analysis
[8] = tested on: Radical scavenging activity; assay: Antioxidant activity assessed as DPPH radical scavenging activity by spectrophotometric analysis

Row | Compound | zone of inhibition at 1000 µg/mL [1] [mm] | zone of inhibition at 1000 µg/mL [2] [mm] | zone of inhibition at 1000 µg/mL [3] [mm] | zone of inhibition at 1000 µg/mL [4] [mm] | zone of inhibition at 1000 µg/mL [5] [mm] | zone of inhibition at 1000 µg/mL [6] [mm] | Activity [7] [%] | IC50 [8] [µg/mL] | inhibition zone (IZ) [1] [mm] | inhibition zone (IZ) [2] [mm] | inhibition zone (IZ) [3] [mm]
1 | N#Cc1c(-c2c(-c3ccccc3)[nH]c3ccc(Cl)cc23)n2nnnc2n2nnnc12 | 13 | 12 | 14 | 10 | 11 | 13 |  |  |  |  | 
2 | N#Cc1c(-c2c(-c3ccccc3)[nH]c3ccc(Cl)cc23)[nH]c(=S)[nH]c1=O | 14 | 10 | 14 | 12 | 9 | 10 | 79.7 | 16.43 (≈ 43.4 µM) |  |  | 
3 | Cc1ccc2[nH]c(-c3ccccc3)c(-c3[nH]c(=S)[nH]c(=S)c3C#N)c2c1 | 8 | 10 | 9 | 9 | 10 | 9 |  |  |  |  | 
4 | N#Cc1c(-c2c(-c3ccccc3)[nH]c3ccccc23)n2nnnc2n2nnnc12 | 12 | 14 | 14 | 7 | 10 | 10 |  |  |  |  | 
5 | N#Cc1c(NN)nc(NN)nc1-c1c(-c2ccccc2)[nH]c2ccccc12 | 11 | 10 | 8 | 10 | 11 | 10 |  |  |  |  | 
6 | Cc1ccc2[nH]c(-c3ccccc3)c(-c3nc(NN)nc4[nH]nc(N)c34)c2c1 | 13 | 12 | 11 | 9 | 10 | 10 |  |  |  |  | 
7 | Cc1ccc2[nH]c(-c3ccccc3)c(-c3c(C#N)c4nnnn4c4nnnn34)c2c1 | 11 | 10 | 10 | 9 | 12 | 9 |  |  |  |  | 
8 | GENTAMICIN |  |  |  |  |  |  |  |  | 15 | 16 | 15
9 | NNc1nc(-c2c(-c3ccccc3)[nH]c3ccc(Cl)cc23)c2c(N)n[nH]c2n1 | 9 | 13 | 13 | 13 | 10 | 9 |  |  |  |  | 
10 | COc1ccc(O)c(C(C)(C)C)c1.COc1ccc(O)cc1C(C)(C)C [BUTYLATED HYDROXYANISOLE] |  |  |  |  |  |  |  | 14.35 |  |  | 
11 | N#Cc1c(-c2c(-c3ccccc3)[nH]c3ccccc23)[nH]c(=S)[nH]c1=O | 12 | 11 | 11 | 10 | 10 | 10 |  |  |  |  | 
12 | N#Cc1c(-c2c(-c3ccccc3)[nH]c3ccccc23)[nH]c(=S)[nH]c1=S | 8 | 7 | 8 | 10 | 11 | 11 |  |  |  |  | 
13 | Cc1ccc2[nH]c(-c3ccccc3)c(-c3nc(NN)nc(NN)c3C#N)c2c1 | 12 | 10 | 10 | 9 | 11 | 11 |  |  |  |  | 
14 | Cc1ccc2[nH]c(-c3ccccc3)c(-c3[nH]c(=S)[nH]c(=O)c3C#N)c2c1 | 11 | 10 | 12 | 11 | 11 | 13 |  |  |  |  | 
15 | OC(Cn1cncn1)(Cn1cncn1)c1ccc(F)cc1F [FLUCONAZOLE] |  |  |  | 14 | 15 | 14 |  |  |  |  | 
16 | N#Cc1c(NN)nc(NN)nc1-c1c(-c2ccccc2)[nH]c2ccc(Cl)cc12 | 10 | 13 | 11 | 10 | 10 | 8 |  |  |  |  | 
17 | NNc1nc(-c2c(-c3ccccc3)[nH]c3ccccc23)c2c(N)n[nH]c2n1 | 12 | 11 | 12 | 12 | 10 | 12 |  |  |  |  | 
18 | CC(C)(C)c1cc(O)ccc1O [E319] |  |  |  |  |  |  |  | 14.46 (≈ 87 µM) |  |  | 
19 | N#Cc1c(-c2c(-c3ccccc3)[nH]c3ccc(Cl)cc23)[nH]c(=S)[nH]c1=S | 9 | 10 | 12 | 11 | 10 | 11 |  |  |  |  | 
